#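 A five-concentration, 48-hour dose response in 96-well plates underlies each endpoint, interpolated linearly between surrounding concentrations. GI50 = concentration required for 50% inhibition of growth.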 Calls of active or inactive are those of the source. No stated cut-off is given here; in the data, active = GI50 up to about 1.1 µM and inactive = higher.
# Columns and labels:
# Assay in all cases: NCI-60 cell line screen, 48 h
# [1] = test system: SNB-75
# [2] = test system: HCT-15
# [3] = test system: UACC-257
# [4] = test system: SF-295
# [5] = test system: OVCAR-8
# [6] = test system: CCRF-CEM
# [7] = test system: HT-29
# [8] = test system: NCI-H522
# [9] = test system: M14
# [10] = test system: BT-549
# [11] = test system: SK-OV-3
# [12] = test system: SF-268
# [13] = test system: DU-145
# [14] = test system: KM12
# [15] = test system: HCT-116
# [16] = test system: SNB-19
# [17] = test system: Hs-578T
# [18] = test system: UACC-62
# [19] = test system: COLO 205
# [20] = test system: MDA-MB-231
# [21] = test system: OVCAR-4
# [22] = test system: NCI-H460
# [23] = test system: SK-MEL-5
# [24] = test system: HCC 2998
# [25] = test system: SK-MEL-28
# [26] = test system: MDA-N
# [27] = test system: EKVX
# [28] = test system: MCF7
# [29] = test system: HL-60
# [30] = test system: RPMI-8226
# [31] = test system: OVCAR-3
# [32] = test system: NCI-H226
# [33] = test system: U-251
# [34] = test system: UO-31
# [35] = test system: PC-3
# [36] = test system: NCI/ADR-RES
# [37] = test system: HOP-62
# [38] = test system: MOLT-4
# [39] = test system: OVCAR-5
# [40] = test system: SK-MEL-2
# [41] = test system: A549
# [42] = test system: 786-0
# [43] = test system: Malme-3M
# [44] = test system: K562
# [45] = test system: ACHN
# [46] = test system: MDA-MB-435
# [47] = test system: IGROV-1
# [48] = test system: T47D
# [49] = test system: CAKI-1
# [50] = test system: TK-10
# [51] = test system: SN12C
# [52] = test system: SW-620
# [53] = test system: RXF 393
# [54] = test system: NCI-H23
# [55] = test system: A498
# [56] = test system: LOX IMVI
# [57] = test system: SF-539
# [58] = test system: HOP-92
structure (smiles),measurement,setting,value
O=C1c2ccccc2C2(c3ccc(F)cc3)NCCN12 (centres undefined),GI50,[1],> 100 µM (inactive)
same,GI50,[2],> 100 µM
same,GI50,[3],> 100 µM (inactive)
same,GI50,[4],> 100 µM (inactive)
same,GI50,[5],> 100 µM (inactive)
same,GI50,[6],> 100 µM (inactive)
same,GI50,[7],> 100 µM (inactive)
same,GI50,[8],> 100 µM (inactive)
same,GI50,[9],> 100 µM (inactive)
same,GI50,[10],> 100 µM (inactive)
same,GI50,[11],> 100 µM (inactive)
same,GI50,[12],> 100 µM (inactive)
same,GI50,[13],> 100 µM (inactive)
same,GI50,[14],> 100 µM (inactive)
same,GI50,[15],> 100 µM (inactive)
same,GI50,[16],> 100 µM (inactive)
same,GI50,[17],> 100 µM (inactive)
same,GI50,[18],> 100 µM (inactive)
same,GI50,[19],> 100 µM (inactive)
same,GI50,[20],> 100 µM (inactive)
same,GI50,[21],> 100 µM (inactive)
same,GI50,[22],> 100 µM (inactive)
same,GI50,[23],> 100 µM (inactive)
same,GI50,[24],> 100 µM (inactive)
same,GI50,[25],> 100 µM (inactive)
same,GI50,[26],> 100 µM (inactive)
same,GI50,[27],> 100 µM (inactive)
same,GI50,[28],> 100 µM (inactive)
same,GI50,[29],> 100 µM (inactive)
same,GI50,[30],> 100 µM (inactive)
same,GI50,[31],> 100 µM (inactive)
same,GI50,[32],> 100 µM (inactive)
same,GI50,[33],> 100 µM (inactive)
same,GI50,[34],> 100 µM (inactive)
same,GI50,[35],> 100 µM (inactive)
same,GI50,[36],> 100 µM (inactive)
same,GI50,[37],> 100 µM (inactive)
same,GI50,[38],> 100 µM (inactive)
same,GI50,[39],> 100 µM (inactive)
same,GI50,[40],> 100 µM (inactive)
same,GI50,[41],> 100 µM (inactive)
same,GI50,[42],> 100 µM (inactive)
same,GI50,[43],> 100 µM (inactive)
same,GI50,[44],> 100 µM (inactive)
same,GI50,[45],> 100 µM (inactive)
same,GI50,[46],> 100 µM (inactive)
same,GI50,[47],> 100 µM (inactive)
same,GI50,[48],> 100 µM (inactive)
same,GI50,[49],> 100 µM (inactive)
same,GI50,[50],> 100 µM (inactive)
same,GI50,[51],> 100 µM (inactive)
same,GI50,[52],> 100 µM (inactive)
same,GI50,[53],> 100 µM (inactive)
same,GI50,[54],> 100 µM (inactive)
O=[N+]([O-])/C(C(Cl)=C(Cl)Cl)=C(\Nc1cccc2ccccc12)n1nnc2ccccc21,GI50,[1],86.5 µM (inactive)
same,GI50,[2],58.2 µM
same,GI50,[3],> 100 µM (inactive)
same,GI50,[4],32.1 µM (inactive)
same,GI50,[5],73.6 µM (inactive)
same,GI50,[6],28.9 µM (inactive)
same,GI50,[7],63.5 µM (inactive)
same,GI50,[9],> 100 µM (inactive)
same,GI50,[10],21.7 µM (inactive)
same,GI50,[55],33.5 µM (inactive)
same,GI50,[11],68.7 µM (inactive)
same,GI50,[12],48 µM (inactive)
same,GI50,[13],> 100 µM (inactive)
same,GI50,[14],30.7 µM (inactive)
same,GI50,[15],34.1 µM (inactive)
same,GI50,[16],32.9 µM (inactive)
same,GI50,[17],9.31 µM (inactive)
same,GI50,[18],40.9 µM (inactive)
same,GI50,[19],21.5 µM (inactive)
same,GI50,[20],47.1 µM (inactive)
same,GI50,[21],33.3 µM (inactive)
same,GI50,[22],63.4 µM (inactive)
same,GI50,[24],> 100 µM (inactive)
same,GI50,[25],> 100 µM (inactive)
same,GI50,[26],> 100 µM (inactive)
same,GI50,[56],35.4 µM (inactive)
same,GI50,[27],> 100 µM (inactive)
same,GI50,[28],41.5 µM (inactive)
same,GI50,[30],23.3 µM (inactive)
same,GI50,[31],46.8 µM (inactive)
same,GI50,[32],71.3 µM (inactive)
same,GI50,[33],33 µM (inactive)
same,GI50,[34],98.4 µM (inactive)
same,GI50,[35],47.1 µM (inactive)
same,GI50,[36],78.3 µM (inactive)
same,GI50,[37],32.4 µM (inactive)
same,GI50,[39],42 µM (inactive)
same,GI50,[40],38.4 µM (inactive)
same,GI50,[41],77.3 µM (inactive)
same,GI50,[42],> 100 µM (inactive)
same,GI50,[43],68.5 µM (inactive)
same,GI50,[57],> 100 µM (inactive)
same,GI50,[45],> 100 µM (inactive)
same,GI50,[46],53.7 µM (inactive)
same,GI50,[48],> 100 µM (inactive)
same,GI50,[49],> 100 µM (inactive)
same,GI50,[51],> 100 µM (inactive)
same,GI50,[52],58.5 µM (inactive)
same,GI50,[53],19.1 µM (inactive)
same,GI50,[54],37.6 µM (inactive)
CCCCc1ccc(Nc2nc(N)c3[nH]cnc3n2)cc1,GI50,[2],25 µM
same,GI50,[3],26.5 µM (inactive)
same,GI50,[4],25.9 µM (inactive)
same,GI50,[5],15.8 µM (inactive)
same,GI50,[6],21.7 µM (inactive)
same,GI50,[7],13.8 µM (inactive)
same,GI50,[8],14.7 µM (inactive)
same,GI50,[9],31.2 µM (inactive)
same,GI50,[10],21.5 µM (inactive)
same,GI50,[55],11.2 µM (inactive)
same,GI50,[11],20.8 µM (inactive)
same,GI50,[12],14.9 µM (inactive)
same,GI50,[13],19.2 µM (inactive)
same,GI50,[14],18.3 µM (inactive)
same,GI50,[15],17.1 µM (inactive)
same,GI50,[16],17.8 µM (inactive)
same,GI50,[17],17.7 µM (inactive)
same,GI50,[18],17.2 µM (inactive)
same,GI50,[19],18.3 µM (inactive)
same,GI50,[20],19.8 µM (inactive)
same,GI50,[21],24.5 µM (inactive)
same,GI50,[22],22.9 µM (inactive)
same,GI50,[23],17 µM (inactive)
same,GI50,[24],24 µM (inactive)
same,GI50,[25],22.5 µM (inactive)
same,GI50,[26],16.9 µM (inactive)
same,GI50,[56],18.4 µM (inactive)
same,GI50,[27],19.6 µM (inactive)
same,GI50,[58],15.5 µM (inactive)
same,GI50,[28],18.4 µM (inactive)
same,GI50,[29],18.7 µM (inactive)
same,GI50,[30],25.4 µM (inactive)
same,GI50,[31],20.7 µM (inactive)
same,GI50,[32],8.73 µM (inactive)
same,GI50,[33],24.4 µM (inactive)
same,GI50,[34],12.7 µM (inactive)
same,GI50,[35],15 µM (inactive)
same,GI50,[36],15.2 µM (inactive)
same,GI50,[38],0.925 µM (active)
same,GI50,[39],30.5 µM (inactive)
same,GI50,[40],22.4 µM (inactive)
same,GI50,[41],21.3 µM (inactive)
same,GI50,[42],17.2 µM (inactive)
same,GI50,[43],22.2 µM (inactive)
same,GI50,[57],18.8 µM (inactive)
same,GI50,[44],28.1 µM (inactive)
same,GI50,[45],17 µM (inactive)
same,GI50,[46],21.5 µM (inactive)
same,GI50,[47],12.1 µM (inactive)
same,GI50,[48],35.1 µM (inactive)
same,GI50,[49],15.5 µM (inactive)
same,GI50,[50],16.4 µM (inactive)
same,GI50,[51],13.9 µM (inactive)
same,GI50,[52],30.3 µM (inactive)
same,GI50,[54],17.1 µM (inactive)
